Laboratory results: patent US20250288584A1, “COMBINATIONS COMPRISING POSITIVE ALLOSTERIC MODULATORS OR ORTHOSTERIC AGONISTS OF METABOTROPIC GLUTAMATERGIC RECEPTOR SUBTYPE 2 AND THEIR USE” (JANSSEN PHARMACEUTICA NV, priority 2014, published 2025)
Where “and” joins values, the source holds several entries; their conditions need not be identical. Identical values can stand only once. Entries after “also recorded” stand apart in the source; their conditions may differ. Like-named read-outs stand apart in the source and are kept apart here.

Columns and labels:
Type in all cases: in vivo, mice
[1] = Plasma and brain levels (pK/pD analysis); conditions: for concentration at 0.5 h / concentration at 0.25 h / concentration at 1 h / concentration at 2 h / concentration at 4 h: mouse, plasma, subcutaneous
Protocol: In various tests, animals were sacrificed following testing, and trunk blood and/or brain tissue (whole brains) was collected for quantification of drug levels. Immediately after testing, animals were decapitated and trunk blood was collected into a BD Vacutainer® tube containing K2EDTA and chilled on ice until centrifugation. Following centrifugation (13000-18000 rpm, 5-7 min), the plasma was removed and transferred to a labeled microcentrifuge tube and stored at −80° C. For brain tissue collection, brains were removed immediately following decapitation and flash frozen. The frozen sample was placed in a labeled centrifuge tube and stored at −80° C.
In addition to recording the efficacy and toxicity data for these compounds alone or in combination, both plasma and brain samples were collected from each of the groups for pharmacokinetic/pharmacokinetic analysis.

[2] = Minimal motor impairment (rotarod)
[3] = system: 6 Hz (44 mA) psychomotor seizures; assay: 6 Hz psychomotor seizure test, 44 mA (alone, combination with LEV, isobolographic study); conditions: for responders at 20 mg/kg: 20 mg/kg s.c.; for ED50: read-out: ED50 (95% CI) 44 mA
Summary of the method: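 Mice dosed s.c. or p.o. at 0.01 mL/g, alone or with LEV at fixed dose ratios proportional to ED50 values. Focal seizures induced by corneal stimulation (6 Hz, 0.2 msec pulse, 3 sec, 44 mA); animals without stun, forelimb clonus, vibrissae twitch or Straub-tail were counted as protected. ED50 values derived, with combinations analysed isobolographically.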

[4] = 5 mg/kg s.c., 0.25 h, 32 mA group
[5] = 10 mg/kg s.c., 0.25 h, 32 mA group
[6] = 10 mg/kg s.c., 0.5 h, 32 mA group
[7] = 10 mg/kg s.c., 1 h, 32 mA group
[8] = 10 mg/kg s.c., 2 h, 32 mA group
[9] = 10 mg/kg s.c., 4 h, 32 mA group
[10] = 20 mg/kg s.c., 0.5 h, 32 mA group
[11] = 20 mg/kg s.c., 0.25 h, 32 mA group
[12] = 10 mg/kg, 10 mg/kg s.c., 32 mA group, read-out: Co. No. 25-a mean plasma levels
[13] = 20 mg/kg, 20 mg/kg s.c., 32 mA group, read-out: Co. No. 25-a mean plasma levels

Compound: Fc1ccc(N2CCN(Cc3ccn4c(CC5CC5)nnc4c3C(F)(F)F)CC2)c(F)c1 [Co. No. 1]
- Mean Plasma Level Co. No. 1, statistical outlier removed ([1]; Co. No. 1 2.5 mg/kg combined with LEV 10 mg/kg): (390) ng/ml
- concentration at 0.5 h ([1]; 2.5 mg/kg, Mean Plasma Levels (non-combination) Co. No. 1, Co. No. 1 2.5 mg/kg alone): 438 ng/mL
- concentration at 0.5 h ([1]; Mean Plasma Level Co. No. 1, Co. No. 1 2.5 mg/kg combined with LEV 10 mg/kg): 657 ng/mL
- # rotarod motor impairment/# tested ([2]; 0.5 mg/kg s.c., 0.5 h, 32 mA group): 0/8
- # rotarod motor impairment/# tested ([2]; 2.5 mg/kg s.c., 0.25 h, 32 mA group): 0/0
- # rotarod motor impairment/# tested ([2]; 2.5 mg/kg s.c., 0.5 h, 32 mA group): 0/0 and 0/16
- # rotarod motor impairment/# tested ([2]; 2.5 mg/kg s.c., 0.5 h, 44 mA group): 0/8
- # rotarod motor impairment/# tested [2, 4]: 0/0
- # rotarod motor impairment/# tested ([2]; 5 mg/kg s.c., 0.5 h, 32 mA group): 0/0 and 0/12
- # rotarod motor impairment/# tested [2, 5]: 0/0
- # rotarod motor impairment/# tested [2, 6]: 0/0 and 0/8
- # rotarod motor impairment/# tested ([2]; 10 mg/kg s.c., 0.5 h, 44 mA group): 0/8
- # rotarod motor impairment/# tested [2, 7]: 0/0
- # rotarod motor impairment/# tested [2, 8]: 0/0
- # rotarod motor impairment/# tested [2, 9]: 0/0
- # rotarod motor impairment/# tested ([2]; 15 mg/kg s.c., 0.5 h, 44 mA group): 0/8
- # rotarod motor impairment/# tested [2, 10]: 1/8
- # rotarod motor impairment/# tested ([2]; 20 mg/kg s.c., 0.5 h, 44 mA group): 1/8
- responders at 2.5 mg/kg ([3]; Mus musculus, sc, 0.5 h, 2.5 mg/kg s.c., 0.5 h, read-out: # protected/# tested): 0%
- responders at 10 mg/kg ([3]; Mus musculus, sc, 0.5 h, 10 mg/kg s.c., 0.5 h, read-out: # protected/# tested (converted)): 50%
- responders at 15 mg/kg ([3]; Mus musculus, sc, 0.5 h, 15 mg/kg s.c., 0.5 h, read-out: # protected/# tested (converted)): 87.5%
- responders at 20 mg/kg ([3]; Mus musculus, sc, 0.5 h, 0.5 h, read-out: # protected/# tested (converted)): 100%
- ED50 ([3]; Mus musculus, sc, at TPE, compound alone): 10.2 mg/kg
- ED50 (95% CI) 44 mA ([3]; s.c., at TPE, compound alone): 10.2 (3.1-12.4) mg/kg

Compound: CCCCn1ccc(N2CCC(c3ccc(F)cc3F)CC2)c(Cl)c1=O [Co. No. 25-a]
- Co. No. 25-a mean plasma levels (ng/mL) [1, 5]: 6,113 ng/mL
- Co. No. 25-a mean plasma levels (ng/mL) [1, 11]: 5,570 ng/mL
- concentration at 0.25 h ([1]; 1 mg/kg, 1 mg/kg s.c., 0.25 h, 32 mA group, read-out: Co. No. 25-a mean plasma levels): 466 ng/mL
- concentration at 0.25 h ([1]; 5 mg/kg, 5 mg/kg s.c., 0.25 h, 32 mA group, read-out: Co. No. 25-a mean plasma levels): 2560 ng/mL
- concentration at 0.25 h ([1]; 5 mg/kg, 5 mg/kg s.c., 44 mA group, read-out: Co. No. 25-a mean plasma levels): 1430 ng/mL
- concentration at 0.25 h ([1]; 10 mg/kg, 10 mg/kg s.c., 0.25 h, 32 mA group, read-out: Co. No. 25-a mean plasma levels): 11000 ng/mL
- concentration at 0.25 h ([1]; 10 mg/kg, 10 mg/kg s.c., 0.25 h, 32 mA group, read-out: Co. No. 25-a mean plasma levels, statistical outlier removed): 11000 ng/mL
- concentration at 0.5 h ([1]; 10 mg/kg, 10 mg/kg s.c., 0.5 h, 32 mA group, read-out: Co. No. 25-a mean plasma levels): 3330 ng/mL
- concentration at 1 h [1, 12]: 700 ng/mL
- concentration at 2 h [1, 12]: 256 ng/mL
- concentration at 4 h [1, 12]: 40 ng/mL
- concentration at 0.25 h ([1]; 10 mg/kg, 10 mg/kg s.c., 44 mA group, read-out: Co. No. 25-a mean plasma levels): 4340 ng/mL
- concentration at 0.25 h ([1]; 10 mg/kg, 10 mg/kg s.c., 44 mA group, read-out: Co. No. 25-a mean plasma levels, statistical outlier removed): 4340 ng/mL
- concentration at 0.25 h ([1]; 15 mg/kg, 15 mg/kg s.c., 0.25 h, 32 mA group, read-out: Co. No. 25-a mean plasma levels): 1200 ng/mL
- concentration at 0.25 h ([1]; 20 mg/kg, 20 mg/kg s.c., 0.25 h, 32 mA group, read-out: Co. No. 25-a mean plasma levels): 4100 ng/mL
- concentration at 0.5 h ([1]; 20 mg/kg, 20 mg/kg s.c., 0.5 h, 32 mA group, read-out: Co. No. 25-a mean plasma levels): 2800 ng/mL
- concentration at 1 h [1, 13]: 1760 ng/mL
- concentration at 2 h [1, 13]: 618 ng/mL
- concentration at 4 h [1, 13]: 28 ng/mL
- concentration at 0.25 h ([1]; 20 mg/kg, 20 mg/kg s.c., 44 mA group, read-out: Co. No. 25-a mean plasma levels): 3370 ng/mL
- concentration at 0.25 h ([1]; 30 mg/kg, 30 mg/kg s.c., 44 mA group, read-out: Co. No. 25-a mean plasma levels): 7220 ng/mL
- concentration at 0.25 h ([1]; 40 mg/kg, 40 mg/kg s.c., 44 mA group, read-out: Co. No. 25-a mean plasma levels): 6260 ng/mL
- # rotarod motor impairment/# tested ([2]; 1 mg/kg s.c., 0.25 h, 32 mA group): 0/8
- # rotarod motor impairment/# tested [2, 4]: 0/8
- # rotarod motor impairment/# tested ([2]; 5 mg/kg s.c., 0.25 h, 44 mA group): 1/8
- # rotarod motor impairment/# tested [2, 5]: 0/4 and 0/8
- # rotarod motor impairment/# tested ([2]; 10 mg/kg s.c., 0.25 h, 44 mA group): 0/8
- # rotarod motor impairment/# tested [2, 6]: 0/4
- # rotarod motor impairment/# tested [2, 7]: 1/4
- # rotarod motor impairment/# tested [2, 8]: 0/4
- # rotarod motor impairment/# tested [2, 9]: 0/4
- # rotarod motor impairment/# tested ([2]; 15 mg/kg s.c., 0.25 h, 32 mA group): 0/8
- # rotarod motor impairment/# tested [2, 11]: 0/4 and 0/8
- # rotarod motor impairment/# tested ([2]; 20 mg/kg s.c., 0.25 h, 44 mA group): 0/8
- # rotarod motor impairment/# tested [2, 10]: 1/4
- # rotarod motor impairment/# tested ([2]; 20 mg/kg s.c., 1 h, 32 mA group): 1/4
- # rotarod motor impairment/# tested ([2]; 20 mg/kg s.c., 2 h, 32 mA group): 0/4
- # rotarod motor impairment/# tested ([2]; 20 mg/kg s.c., 4 h, 32 mA group): 1/4
- # rotarod motor impairment/# tested ([2]; 30 mg/kg s.c., 0.25 h, 44 mA group): 0/8
- # rotarod motor impairment/# tested ([2]; 40 mg/kg s.c., 0.25 h, 44 mA group): 0/8
- activity when administered alone ([3]; 10 mg/kg s.c.): did not protect; also recorded: Co. No. 25-a (s.c.) 10 mg/kg tested in combination with LEV (i.p.)-Co. No. 25-a 10 mg/kg, not active when administered alone
- responders at 5 mg/kg ([3]; Mus musculus, sc, 0.25 h, 5 mg/kg s.c., 0.25 h, read-out: # protected/# tested): 0%
- responders at 10 mg/kg ([3]; Mus musculus, sc, 0.25 h, 10 mg/kg s.c., 0.25 h, read-out: # protected/# tested (converted)): 0%
- responders at 20 mg/kg ([3]; Mus musculus, sc, 0.25 h, 0.25 h, read-out: # protected/# tested (converted)): 25%
- responders at 30 mg/kg ([3]; Mus musculus, sc, 0.25 h, 30 mg/kg s.c., 0.25 h, read-out: # protected/# tested (converted)): 37.5%
- responders at 40 mg/kg ([3]; Mus musculus, sc, 0.25 h, 40 mg/kg s.c., 0.25 h, read-out: # protected/# tested (converted)): 87.5%
- ED50 ([3]; Mus musculus, sc, 0.25 h, s.c., 0.25 hr TPE): 29.1 mg/kg
- ED50 ([3]; Mus musculus, sc, 1 h, s.c., 1 hr TPE): 25.9 mg/kg
- ED50 (95% CI) 44 mA ([3]; s.c., 0.25 hr TPE): ED50 (95% CI): 29.1 mg/kg (21.6 to 39.6)
- ED50 (95% CI) 44 mA ([3]; s.c., 1 hr TPE): 1 hr TPE: 25.9 mg/kg
